Results taken from patent publication US11110098B2, “Methods and medicaments for the treatment of renal cell carcinoma” (University of Kansas, priority 2017, dated 2021).

How the values were obtained:
Caki-1 cells [1] = assay: Caki-1 xenograft tumor growth in nude mice; type: in vivo, Nu/Nu mice; conditions: OPC31260 30 and 60 mg/Kg
Experimental: Female Athymic Nude-Foxn1^nu mice (Nu/Nu mice), 7-8 weeks old and weighing ˜25 g were procured from Envigo/Harlan. All animal studies were carried out according to the protocols approved by the University of Kansas Medical Center Institutional Animal Care and Use Committee. Mice were subcutaneously injected on the right flank region with 1×10^6 Caki-1 cells in 100 μl of DMEM medium. […] Once the tumor volume reached ˜80-100 mm^3, mice were randomized into sub-groups based on the tumor volume. Animals were administered vehicle, OPC31260 (30 mg/Kg BWt.), OPC31260 (60 mg/Kg BWt) or dDAVP (1 μg/Kg BWt.) and vehicle (saline) by daily intraperitoneal injection, (60 mg/Kg BWt) or dDAVP (1 μg/Kg BWt.) and vehicle (saline) by daily intraperitoneal injection, or tolvaptan (120 mg/Kg BWt. in 1% aqueous solution of hydroxypropyl methylcellulose-dose derived from previous study^31) or vehicle by daily oral gavage for 28 days. Body weights and tumor volumes were measured every alternate day. At the end of the study, mice were injected with BRDU (100 mg/Kg BWt. by IP) 90 minutes before sacrifice. Tumors were harvested, photographed and weighed. Tumors were flash frozen or paraffin embedded for further analysis.

[2] = system: pERK1/2, ERK1/2, pCREB, CREB, VEGF; assay: Immunoblotting of xenograft tumor lysates; type: in vivo, Nu/Nu mice; conditions: tolvaptan 120 mg/Kg oral
Experimental: Female Athymic Nude-Foxn1^nu mice (Nu/Nu mice), 7-8 weeks old and weighing ˜25 g were procured from Envigo/Harlan. All animal studies were carried out according to the protocols approved by the University of Kansas Medical Center Institutional Animal Care and Use Committee. Mice were subcutaneously injected on the right flank region with 1×10^6 Caki-1 cells in 100 μl of DMEM medium. One week after injection, palpable tumors appeared and tumor volume was measured with calipers following the formula, […]. Once the tumor volume reached ˜80-100 mm^3, mice were randomized into sub-groups based on the tumor volume. Animals were administered vehicle, OPC31260 (30 mg/Kg BWt.), OPC31260 (60 mg/Kg BWt) or dDAVP (1 μg/Kg BWt.) and vehicle (saline) by daily intraperitoneal injection, or tolvaptan (120 mg/Kg BWt. in 1% aqueous solution of hydroxypropyl methylcellulose-dose derived from previous study^31) or vehicle by daily oral gavage for 28 days. Body weights and tumor volumes were measured every alternate day. At the end of the study, mice were injected with BRDU (100 mg/Kg BWt. by IP) 90 minutes before sacrifice. Tumors were harvested, photographed and weighed. Tumors were flash frozen or paraffin embedded for further analysis.
(§1) Tumors from mouse xenografts and cultured 786-O and Caki-1 cells were homogenized in SDS Laemmli buffer and loaded onto 10% SDS-polyacrylamide agarose gel electrophoresis gels, transferred to nitrocellulose membranes and blocked with 5% milk in TBST^32. Membranes were probed with primary antibody followed by wash and horseradish peroxidase secondary antibody application.

786-O cells [3] = assay: Western blot of cell lysate, 786-O cells; type: cell-based, human; conditions: 24 h
Text: as §1

Caki-1 cells [4] = assay: Western blot of cell lysate, Caki-1 cells; type: cell-based, human; conditions: 48 h
Text: as §1

Caki-1 cells [5] = assay: MTT cell viability, Caki-1 cells; type: cell-based; conditions: Homo sapiens, 48 h, read-out: dose at which cell viability declined by 50%
Experimental: MTT assays were performed to measure cell viability. Briefly, exponentially growing 786-O and Caki-1 cells were seeded in 96 well plates. After 24 h, cells were incubated with different doses of OPC31260 for 48 h. The cells were then incubated in MTT solution (5 mg/mL) for 2 h, following which the MTT solution was removed and the intracellular purple formazan was solubilized in DMSO and quantified by spectrophotometry at […].

786-O cells [6] = assay: Cell cycle analysis (propidium iodide, FACS), 786-O cells; type: cell-based, human; conditions: 24 h, 10 μM or higher doses
Experimental: (§2) 786-O and Caki-1 cells were incubated for 24 h with 0, 1, 5, 10, 25 or 50 μM of OPC31260, and stained with propidium iodide for analysis by flow cytometry. Cells were rinsed with PBS and trypsinized, and washed twice with PBS. Single-cell suspensions were fixed using pre-chilled 70% ethanol overnight, and subsequently permeabilized with PBS containing 0.1% Triton X-100, 1 mg/ml propidium iodide (Sigma-Aldrich) and 2 mg/ml DNase-free RNase at room temperature. Flow cytometry was done with a FACS Calibur analyzer (Becton Dickinson, Mountain, View, Calif.), capturing 10,000 events for each sample. Results were analyzed with ModFit LT™ software (Verity Software House, Topsham, Me.).

Caki-1 cells [7] = assay: Cell cycle analysis (propidium iodide, FACS), Caki-1 cells; type: cell-based, human; conditions: 24 h, 10 μM or higher doses
Experimental: as §2

Caki-1 cells [8] = assay: Annexin V-FITC/PI apoptosis/necrosis, Caki-1 cells; type: cell-based, human; conditions: 24 h
Experimental: Annexin V-FITC/PI staining was performed for quantification of apoptosis and necrotic cell death using FITC AnnexinV apoptosis detection kit I. Green FITC dye stains apoptotic cells whereas propidium iodide stains necrotic cells with red fluorescence. RCC cells were incubated with OPC31260 for 24 h and washed in cold PBS and resuspended in calcium containing binding buffer (10 mM HEPES, 140 mM NaCl, 5 mM CaCl2; pH 7.4) at a concentration of 1×10^6 cells/ml and stained for 15 min, with 5 μl Annexin V-FITC and 5 μl PI at 1 μg/ml (Cell signaling kit, USA). 10,000 cells were analyzed at an excitation wavelength of 488 nm and emission wavelengths of 530 nm for FITC fluorescence and 610 nm for PI fluorescence. The percentages of viable (Annexin V−PI−), early apoptotic (Annexin V+PI−), late apoptotic/necrotic (Annexin V+PI+) and necrotic cells (Annexin V-PI+) were evaluated with the CellQuestPro® software (Becton, Dickinson, Heidelberg, Germany).

[9] = OPC31260 30/60 mg/kg IP, dDAVP 1 μg/Kg IP, 28 days

Cc1ccccc1C(=O)Nc1ccc(C(=O)N2CCCC(N(C)C)c3ccccc32)cc1 (centres unmarked) [OPC31260, 5-(dimethylamino)-1-[4-(2-methylbenzamido)benzoyl]-2,3,4,5-tetrahydro-1H-benzazepine]
tumor volume (Caki-1 cells [1]; daily intraperitoneal injections, 28 days): failed to show a significant increase | tumors at sacrifice versus vehicle (tumor weights, FIG. 2) (Caki-1 cells [1]; daily intraperitoneal, after 28 days): significantly smaller than in the vehicle treatment group | CREB levels in tumor lysates ([2]; OPC31260 30/60 mg/kg IP, 28 days): reduced | pCREB levels in tumor lysates [2, 9]: reduced | pERK1/2 levels in tumor lysates [2, 9]: reduced | VEGF protein levels in tumors compared to vehicle ([2]; OPC31260 IP, dDAVP 1 μg/Kg IP, daily 28 days): significantly reduced | pCREB levels (786-O cells [3]): dose-dependently reduced | pERK1/2 levels (786-O cells [3]): dose-dependently reduced | pCREB levels (Caki-1 cells [4]): dose-dependently reduced | pERK1/2 levels (Caki-1 cells [4]): dose-dependently reduced | IC50 (Caki-1 cells [5]): 5 to 10 µM | cells in G2/M phase (786-O cells [6]): 60-70% | cells in G2/M phase (Caki-1 cells [7]): 60-70% | apoptosis (Caki-1 cells [8]): increase in apoptosis
